{
  "source": "patent US20240041823A1",
  "about": "“USE OF MYCOLACTONE (MLN) AND DERIVATIVES THEREOF FOR TREATMENT OF MICROBIAL INFECTIONS” (priority 2022, published 2024)",
  "system": "SARS-CoV-2 variants of concern (VOC)",
  "assay_type": "cell-based",
  "conditions": "plaque assay",
  "data": [
    {"substance": "mycolactone [MLN]", "values": [
      {"measurement": "IC50 fold lower than Remdesivir", "result": "9-18 fold"}
    ]}
  ]
}
